In series [1] the test system is tinnitus. Conditions: Westerberg et al., 1996 (baclofen); Piccirillo et al., 2007 (gabapentin); cited from earlier work.
Series [2] deals with tinnitus. Conditions: cited from earlier work.
The test system of a further series is NKCC1 versus KCC2. Conditions: Blaesse et al., 2009, cited from earlier work.
The test system of series [3] is KCC2 expression in cochlear tissue. Description: Real-time PCR for KCC2 expression in cochlear tissue after noise or sham exposure and local treatment. Format: in vivo, rat. As for the experimental part: 20 adult female Wistar rats were anaesthetized as described above for the previous experiments. First, auditory brainstem response (ABR) measurements were performed. As in Experiment 2, they were then exposed in a sound attenuation booth for 1.5 hours to a continuous 10 kHz tone at an intensity of 120 dB SPL (Group A; n×10) or sham exposed in the same setting (Group B; n=10). Animals were treated bilaterally right after noise trauma with either artificial perilymph (AP) or bumetanide (Sigma B3023, Lot 027Ko988). AP was prepared freshly in accordance with Guitton et al., 2003 (140 mM NaCl, 4 mM KCl, 2 mM CaCl2, 2m M MgCl2, 10 mM glucose, 10 mM HePES). Bumetanide (300 μM) was prepared as follows: 50 mg of bumetanide powder was diluted in 6.87 ml AP. This 20 mM stock solution was diluted 1:66 in AP (15.15 μL stock solution and 984.85 μL AP). 5 animals of Group A and 5 animals of Group B received AP (total 10 animals) and 5 animals of Group A and 5 animals of Group B received bumetanide total (10 animals). For the local treatment administration, the fur was removed behind the ears and the bulla exposed in a retro-auricular approach. A small hole was carefully drilled into the bony bulla just above the round window niche (0.6-1 mm in diameter). The mucosa was opened and the region around the round window carefully dried of fluid. Through the hole, a small gel-foam pellet (Gelita Tampon; Braun, Melsungen, Germany) was inserted into the round window niche, 5-8 μl of bumetanide solution or AP were applied on the gel foam by means of a precision pipette with gel loader tips, thus avoiding air bubbles under the gel. […] The hole in the bulla was then covered from the outside with muscular tissue and the wound was sutured with surgical thread (Vicryl, Johnson & Johnson, Norderstedt, Germany). Postoperatively the animals were kept warm with the body temperature being controlled until wake-up. […] For the real-time PCR reaction 12.5 μl of SYBRGreen (QuantiFast Sybr Green, Qiagen), 1 μl Primer Mix, 7.3 μl ddH2O and 4 μl cDNA were used per well. […]

Series [4] concerns inner hair cell ribbon synapses. Description: Count of inner hair cell ribbon synapses after noise or sham exposure and local treatment. The series is classed as in vivo, rat. The settings on record: bumetanide 300 μM local at round window, 2 weeks following noise. How it is done:
Ribbon synapses of inner hair cells were counted. Sections were viewed using an Olympus AX70 microscope equipped with epifluorescence illumination (100× objective, NA=1.35) and a motorized z-axis. Images were acquired using a CCD camera and the imaging soft-ware Cell^F (OSIS GmbH, Münster, Germany). For Otoferlin and CtBP2/RIBEYE immunopositive spot counting on cryo-sectioned cochleae were performed through imaging over a distance of 8 μm with the complete coverage of the IHC nucleus and beyond in an image-stack along the z-axis (z-stack). Typically z-stacks consisted of 30 layers with a z-increment of 0.276 µm, for each layer one image per fluorochrome was acquired. Z-stacks were 3-dimensionally deconvoluted using Cell^F's RIDE module with the Nearest Neighbour algorithm (OSIS GmbH, Müster, Germany). 20 adult female Wistar rats were anaesthetized as described above for the previous experiments. First, auditory brainstem response (ABR) measurements were performed. As in Experiment 2, they were then exposed in a sound attenuation booth for 1.5 hours to a continuous 10 kHz tone at an intensity of 120 dB SPL (Group A; n×10) or sham exposed in the same setting (Group B; n=10). Animals were treated bilaterally right after noise trauma with either artificial perilymph (AP) or bumetanide (Sigma B3023, Lot 027Ko988). […] Ribbon synapses of inner hair cells were counted as in Experiment 2.

Series [5] has as its system behavioural correlate of tinnitus. Conditions: chronic tinnitus induced by noise trauma; vigabatrin treatment; cited from earlier work.

The values below come from patent US10709682B2, “Treatment of tinnitus through modulation of chloride co-transporter NKCC1 in the auditory system” (OTOLANUM AG, priority 2011, dated 2020).

“Also recorded” adds a separate entry of the source.

Consider `NCC1(CC(=O)O)CCCCC1` [gabapentin], for which, in the series with tinnitus [1], the Effect on tinnitus result is listed as “no effects at all”.
Take `NS(=O)(=O)c1cc(C(=O)O)c(NCc2ccco2)cc1Cl` [furosemide]: the “Induction of tinnitus and hearing loss” value in the series on tinnitus [2] (administered at high doses) was “induce temporary tinnitus and hearing loss”. For the same molecule, the Suppression of tinnitus result in the series on tinnitus [2] (patients, effects only for tinnitus of cochlear rather than central origin) was “suppress tinnitus, albeit only in a reversible fashion and not in all patients”. In addition, in the series on NKCC1 versus KCC2, the “Potency of blocking NKCC1 versus KCCs” value was “approximately equal potency”.
As to `CCCCNc1cc(C(=O)O)cc(S(N)(=O)=O)c1Oc1ccccc1` [bumetanide], the “KCC2 expression (down-regulation) in noise exposed, bumetanide treated ears versus sham exposed ears” value in series [3] (noise exposed ears (10 kHz, 120 dB SPL, 1.5 h), bumetanide 300 μM local at round window, 15 days following treatment) is listed as “No such down-regulation”. In addition, the “KCC2 expression in noise exposed ears, bumetanide treated versus AP treated” value in series [3] (noise exposed ears, bumetanide 300 μM local at round window, 15 days following treatment, p<0.01) is on record as “statistically significant difference; also recorded: statistically significantly different”. For the same molecule, the “KCC2 expression, bumetanide versus AP treated, sham exposed ears” value in series [3] (sham exposed ears (Group B), bumetanide 300 μM, 5-8 μl on gel foam at round window niche, cochlear tissue 15 days following treatment) is “no difference”. Besides, the “Decline of inner hair cell ribbons in noise exposed ears that received bumetanide versus sham exposed” value in series [4] (midbasal and basal cochlear turns) is reported as “not significant”. For the same molecule, in series [4] (noise exposed ears, p<0.02), the “Inner hair cell ribbon numbers in noise exposed ears, bumetanide versus AP treated” value was “significant difference; also recorded: reduced loss of inner hair cell ribbons”. Besides, the “Affinity for NKCC1 versus KCC2” value in the series on NKCC1 versus KCC2 (Payne et al., 2003) is recorded as “much higher affinity for NKCC1 than for KCC2”.
`C=CC(N)CCC(=O)O` (stereo not drawn) [vigabatrin]: the “Behavioural correlate of tinnitus” value in series [5] is given as “reversibly suppressed”.
Consider `NCC(CC(=O)O)c1ccc(Cl)cc1` (stereo not drawn) [baclofen], for which the Effect on tinnitus result in the series on tinnitus [1] is “no effects at all”.
